Among the data in ChEMBL document CHEMBL5291721, “A preclinical secondary pharmacology resource illuminates target-adverse drug reaction associations of marketed drugs” (Nat Commun, 2023) are AC50 values, retold here.

Targets include D(1A) dopamine receptor (Homo sapiens, UniProt P21728); D(3) dopamine receptor (Homo sapiens, UniProt P35462); Histamine H3 receptor (Homo sapiens, UniProt Q9Y5N1).
In a further experiment the target is Prothrombin (Homo sapiens, UniProt P00734). In kind it is functional.
Experiment [1] deals with T1, Amine oxidase [flavin-containing] A (Homo sapiens, UniProt P21397).
T1 sequence (P21397 whole entry): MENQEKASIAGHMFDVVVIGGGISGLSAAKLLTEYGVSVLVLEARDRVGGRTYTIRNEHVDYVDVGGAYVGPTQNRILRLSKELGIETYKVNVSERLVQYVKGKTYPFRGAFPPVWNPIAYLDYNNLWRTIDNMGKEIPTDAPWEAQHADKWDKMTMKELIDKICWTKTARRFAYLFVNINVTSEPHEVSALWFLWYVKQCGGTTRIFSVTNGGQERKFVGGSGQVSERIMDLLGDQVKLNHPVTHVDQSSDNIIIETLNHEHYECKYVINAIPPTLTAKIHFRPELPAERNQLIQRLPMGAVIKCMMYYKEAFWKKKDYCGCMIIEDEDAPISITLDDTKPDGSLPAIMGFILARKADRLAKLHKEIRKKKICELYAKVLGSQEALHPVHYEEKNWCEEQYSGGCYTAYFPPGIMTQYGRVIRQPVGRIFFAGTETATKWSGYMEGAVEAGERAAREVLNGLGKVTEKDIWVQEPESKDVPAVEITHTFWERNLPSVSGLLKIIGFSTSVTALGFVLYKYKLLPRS
In kind it is functional.

A further experiment concerns the target T2, Progesterone receptor (Homo sapiens, UniProt P06401).
T2 sequence (P06401 whole entry): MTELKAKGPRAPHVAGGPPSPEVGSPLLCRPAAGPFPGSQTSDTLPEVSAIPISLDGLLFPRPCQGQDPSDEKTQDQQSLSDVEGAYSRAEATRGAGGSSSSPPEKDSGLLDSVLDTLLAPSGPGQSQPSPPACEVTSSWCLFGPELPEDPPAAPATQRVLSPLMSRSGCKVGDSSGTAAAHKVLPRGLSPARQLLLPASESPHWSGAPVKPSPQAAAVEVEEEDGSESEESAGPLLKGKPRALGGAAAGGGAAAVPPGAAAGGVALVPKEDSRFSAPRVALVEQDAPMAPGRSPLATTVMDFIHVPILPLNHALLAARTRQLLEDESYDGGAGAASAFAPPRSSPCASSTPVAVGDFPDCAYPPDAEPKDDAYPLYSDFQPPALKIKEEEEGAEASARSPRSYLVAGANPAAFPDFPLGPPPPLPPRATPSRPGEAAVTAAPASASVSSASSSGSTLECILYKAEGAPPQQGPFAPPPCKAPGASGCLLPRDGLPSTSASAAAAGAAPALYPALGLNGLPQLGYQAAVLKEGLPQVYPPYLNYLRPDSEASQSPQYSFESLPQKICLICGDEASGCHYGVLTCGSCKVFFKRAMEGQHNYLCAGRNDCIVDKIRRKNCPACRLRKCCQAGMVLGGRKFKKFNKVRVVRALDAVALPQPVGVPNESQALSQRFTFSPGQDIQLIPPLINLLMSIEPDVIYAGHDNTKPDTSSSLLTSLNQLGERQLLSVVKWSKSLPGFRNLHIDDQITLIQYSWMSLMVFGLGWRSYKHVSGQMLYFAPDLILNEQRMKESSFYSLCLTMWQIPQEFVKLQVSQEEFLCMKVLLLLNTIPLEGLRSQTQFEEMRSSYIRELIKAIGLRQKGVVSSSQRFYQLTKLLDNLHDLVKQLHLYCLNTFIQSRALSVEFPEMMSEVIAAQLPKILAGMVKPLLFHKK

For experiment [2], the target named is Sodium-dependent serotonin transporter (Homo sapiens, UniProt P31645).
For the next experiment, the target named is T3, Thromboxane A2 receptor (Homo sapiens, UniProt P21731).
T3 sequence (P21731 whole entry): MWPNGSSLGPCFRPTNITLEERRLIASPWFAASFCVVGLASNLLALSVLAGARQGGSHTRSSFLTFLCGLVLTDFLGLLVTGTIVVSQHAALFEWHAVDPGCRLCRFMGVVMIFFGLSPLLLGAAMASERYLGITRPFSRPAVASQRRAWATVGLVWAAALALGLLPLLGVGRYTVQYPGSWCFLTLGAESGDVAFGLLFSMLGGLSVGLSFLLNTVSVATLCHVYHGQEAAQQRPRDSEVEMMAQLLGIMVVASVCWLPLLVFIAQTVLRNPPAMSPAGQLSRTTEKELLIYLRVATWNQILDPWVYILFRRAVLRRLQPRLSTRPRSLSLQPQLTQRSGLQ
In kind it is functional, cell-based.

Experiment [3] has as its target Voltage-gated inwardly rectifying potassium channel KCNH2 (Homo sapiens, UniProt Q12809). In kind it is functional. The note with it: read-out: AC50.
Experiment [4] addresses T4, Alpha-1A adrenergic receptor (Homo sapiens, UniProt P35348).
T4 sequence (P35348 whole entry): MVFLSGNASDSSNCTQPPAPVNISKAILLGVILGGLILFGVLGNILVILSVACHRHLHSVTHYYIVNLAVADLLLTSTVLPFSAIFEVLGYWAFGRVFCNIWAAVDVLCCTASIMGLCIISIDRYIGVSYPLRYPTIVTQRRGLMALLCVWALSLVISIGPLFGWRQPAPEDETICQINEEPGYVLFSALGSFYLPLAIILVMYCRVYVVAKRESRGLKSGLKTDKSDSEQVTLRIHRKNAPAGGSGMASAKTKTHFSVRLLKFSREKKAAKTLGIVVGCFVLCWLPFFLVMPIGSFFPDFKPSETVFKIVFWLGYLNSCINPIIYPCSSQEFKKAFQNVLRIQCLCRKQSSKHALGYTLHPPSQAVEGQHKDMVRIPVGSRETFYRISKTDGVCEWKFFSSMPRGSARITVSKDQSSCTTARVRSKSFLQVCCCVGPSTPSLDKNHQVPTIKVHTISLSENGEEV
In kind it is functional, cell-based.

Another experiment has as its target T5, Adenosine receptor A3 (Homo sapiens, UniProt P0DMS8).
T5 sequence (P0DMS8 whole entry): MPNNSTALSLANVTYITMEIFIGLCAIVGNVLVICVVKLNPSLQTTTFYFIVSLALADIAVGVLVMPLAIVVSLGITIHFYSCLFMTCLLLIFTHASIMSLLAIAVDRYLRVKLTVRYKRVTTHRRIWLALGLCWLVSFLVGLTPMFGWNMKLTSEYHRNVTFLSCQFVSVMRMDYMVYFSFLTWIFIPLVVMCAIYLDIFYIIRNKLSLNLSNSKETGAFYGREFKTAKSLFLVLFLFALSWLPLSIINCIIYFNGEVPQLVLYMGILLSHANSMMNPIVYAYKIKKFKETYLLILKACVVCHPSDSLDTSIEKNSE

The AC50 is the midpoint of the concentration-response curve, whichever way the signal moves.
Note: assay procedure not described here.

D(1A) dopamine receptor, sequence (P21728 whole entry): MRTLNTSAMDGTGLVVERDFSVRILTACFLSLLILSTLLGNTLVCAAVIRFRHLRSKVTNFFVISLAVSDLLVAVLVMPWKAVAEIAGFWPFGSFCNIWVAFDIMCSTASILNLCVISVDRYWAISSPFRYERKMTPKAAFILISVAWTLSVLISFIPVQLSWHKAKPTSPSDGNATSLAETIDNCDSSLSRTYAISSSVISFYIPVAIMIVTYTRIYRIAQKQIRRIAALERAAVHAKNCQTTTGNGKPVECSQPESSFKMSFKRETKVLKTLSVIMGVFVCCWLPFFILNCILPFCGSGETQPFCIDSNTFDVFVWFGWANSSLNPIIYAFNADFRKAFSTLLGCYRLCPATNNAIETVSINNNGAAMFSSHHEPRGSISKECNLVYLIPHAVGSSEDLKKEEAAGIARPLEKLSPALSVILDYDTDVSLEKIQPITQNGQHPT
Sodium-dependent serotonin transporter, sequence (P31645 whole entry): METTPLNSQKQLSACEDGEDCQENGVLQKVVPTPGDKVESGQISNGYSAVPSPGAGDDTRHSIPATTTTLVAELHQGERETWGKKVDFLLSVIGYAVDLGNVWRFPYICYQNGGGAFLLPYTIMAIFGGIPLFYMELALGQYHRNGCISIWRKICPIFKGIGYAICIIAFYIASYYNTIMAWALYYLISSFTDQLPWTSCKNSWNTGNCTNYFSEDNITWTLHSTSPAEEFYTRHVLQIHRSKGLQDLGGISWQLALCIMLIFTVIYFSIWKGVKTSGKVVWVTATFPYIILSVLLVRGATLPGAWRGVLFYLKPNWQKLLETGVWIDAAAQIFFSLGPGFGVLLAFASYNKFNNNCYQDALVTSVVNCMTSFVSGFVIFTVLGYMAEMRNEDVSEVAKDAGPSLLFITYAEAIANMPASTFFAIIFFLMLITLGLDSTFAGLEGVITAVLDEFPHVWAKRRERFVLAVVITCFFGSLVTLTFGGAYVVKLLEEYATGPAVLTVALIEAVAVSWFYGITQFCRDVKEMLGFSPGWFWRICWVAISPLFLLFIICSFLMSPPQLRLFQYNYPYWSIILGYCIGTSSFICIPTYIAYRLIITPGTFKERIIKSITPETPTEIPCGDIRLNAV
Voltage-gated inwardly rectifying potassium channel KCNH2, sequence (Q12809 whole entry): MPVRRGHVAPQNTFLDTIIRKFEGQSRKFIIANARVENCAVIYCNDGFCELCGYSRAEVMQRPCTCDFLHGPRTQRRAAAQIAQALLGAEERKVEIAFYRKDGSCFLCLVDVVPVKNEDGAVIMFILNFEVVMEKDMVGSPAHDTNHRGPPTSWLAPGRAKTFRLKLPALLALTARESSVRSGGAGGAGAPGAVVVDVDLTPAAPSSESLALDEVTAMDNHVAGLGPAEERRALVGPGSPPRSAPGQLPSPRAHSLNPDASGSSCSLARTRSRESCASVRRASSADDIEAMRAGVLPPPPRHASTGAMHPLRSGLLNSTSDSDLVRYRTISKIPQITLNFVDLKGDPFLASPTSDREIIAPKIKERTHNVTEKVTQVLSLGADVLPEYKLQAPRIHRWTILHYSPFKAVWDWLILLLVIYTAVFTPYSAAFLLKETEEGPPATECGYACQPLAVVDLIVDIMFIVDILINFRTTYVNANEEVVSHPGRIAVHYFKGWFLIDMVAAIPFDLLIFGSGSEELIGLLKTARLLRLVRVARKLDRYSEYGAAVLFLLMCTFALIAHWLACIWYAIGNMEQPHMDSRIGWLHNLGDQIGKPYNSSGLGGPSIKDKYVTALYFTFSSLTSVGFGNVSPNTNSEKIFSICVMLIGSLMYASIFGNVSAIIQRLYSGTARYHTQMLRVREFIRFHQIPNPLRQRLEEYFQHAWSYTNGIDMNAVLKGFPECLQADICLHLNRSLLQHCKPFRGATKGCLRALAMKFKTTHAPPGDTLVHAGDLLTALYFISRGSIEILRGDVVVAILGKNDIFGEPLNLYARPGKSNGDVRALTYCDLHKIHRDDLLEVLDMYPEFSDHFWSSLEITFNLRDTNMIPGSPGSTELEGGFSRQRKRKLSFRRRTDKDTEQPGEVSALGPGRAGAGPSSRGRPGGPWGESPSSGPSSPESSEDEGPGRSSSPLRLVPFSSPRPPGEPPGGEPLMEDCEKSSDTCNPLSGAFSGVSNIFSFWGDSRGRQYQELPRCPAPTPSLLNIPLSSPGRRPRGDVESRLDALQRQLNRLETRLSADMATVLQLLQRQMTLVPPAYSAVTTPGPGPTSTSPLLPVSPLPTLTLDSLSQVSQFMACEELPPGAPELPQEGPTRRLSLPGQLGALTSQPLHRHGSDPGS
D(3) dopamine receptor, sequence (P35462 whole entry): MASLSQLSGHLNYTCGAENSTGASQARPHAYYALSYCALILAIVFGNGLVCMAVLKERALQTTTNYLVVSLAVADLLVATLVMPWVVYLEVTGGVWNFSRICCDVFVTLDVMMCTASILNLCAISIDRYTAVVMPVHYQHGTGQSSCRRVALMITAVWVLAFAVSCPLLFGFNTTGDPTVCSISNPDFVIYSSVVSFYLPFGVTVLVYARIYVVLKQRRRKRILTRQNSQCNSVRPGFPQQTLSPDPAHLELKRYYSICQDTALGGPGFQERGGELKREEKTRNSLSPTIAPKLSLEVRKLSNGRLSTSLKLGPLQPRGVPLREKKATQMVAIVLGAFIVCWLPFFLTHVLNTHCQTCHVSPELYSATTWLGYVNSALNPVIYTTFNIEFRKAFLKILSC
Histamine H3 receptor, sequence (Q9Y5N1 whole entry): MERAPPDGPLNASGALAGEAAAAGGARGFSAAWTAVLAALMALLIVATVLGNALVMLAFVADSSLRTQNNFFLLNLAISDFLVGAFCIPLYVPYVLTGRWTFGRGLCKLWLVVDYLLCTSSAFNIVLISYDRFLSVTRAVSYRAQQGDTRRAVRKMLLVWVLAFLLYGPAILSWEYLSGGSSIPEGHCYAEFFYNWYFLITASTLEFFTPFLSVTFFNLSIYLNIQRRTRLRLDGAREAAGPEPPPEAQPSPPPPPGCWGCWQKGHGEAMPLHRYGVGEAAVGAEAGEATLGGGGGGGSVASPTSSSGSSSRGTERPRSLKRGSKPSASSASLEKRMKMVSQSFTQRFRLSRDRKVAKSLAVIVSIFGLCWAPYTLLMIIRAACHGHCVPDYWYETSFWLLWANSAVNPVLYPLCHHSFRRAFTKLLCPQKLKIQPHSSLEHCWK

For the compound `O=C(Cn1ccnc1[N+](=O)[O-])NCc1ccccc1` [BENZNIDAZOLE], the AC50 (on D(1A) dopamine receptor; on D(3) dopamine receptor; on Prothrombin; at Histamine H3 receptor; in experiment [1]; on Progesterone receptor) was greater than 30 µM in each case. In addition, the half-maximal activity concentration (AC50) (in [2]; at Thromboxane A2 receptor) was greater than 30 µM throughout.

Turning to `NS(=O)(=O)c1cc2c(cc1Cl)NC(CC1CCCC1)NS2(=O)=O` (centres undefined) [CYCLOPENTHIAZIDE], the AC50 (at D(1A) dopamine receptor; at D(3) dopamine receptor; at Prothrombin; on Histamine H3 receptor; in experiment [3]; in experiment [1]) was greater than 30 µM in each case. The concentration at half-maximal activity (AC50) (at Progesterone receptor; in experiment [2]; on Thromboxane A2 receptor) was greater than 30 µM in each case.

Consider `COCC1=C(C(=O)OC(C)OC(=O)OC(C)C)N2C(=O)[C@@H](NC(=O)/C(=N\OC)c3csc(N)n3)[C@H]2SC1` (some centres undefined) [CEFPODOXIME PROXETIL], for which the concentration at half-maximal activity (AC50) (on D(1A) dopamine receptor; on D(3) dopamine receptor; at Prothrombin; at Histamine H3 receptor; in experiment [3]; in experiment [1]) was greater than 30 µM in each case. The AC50 (at Progesterone receptor; in [2]; on Thromboxane A2 receptor) was greater than 30 µM throughout.

`CN1C(=O)N(C)C2C1N(C)C(=O)N2C` (centres undefined) [MEBICAR]: the half-maximal activity concentration (AC50) (on D(1A) dopamine receptor; at D(3) dopamine receptor; at Prothrombin; at Histamine H3 receptor; in experiment [3]; in [1]) was greater than 30 µM each time. Moreover, the half-maximal activity concentration (AC50) (on Progesterone receptor; in [2]; at Thromboxane A2 receptor) was greater than 30 µM in each case.

As for `CCS(=O)(=O)N1CC(CC#N)(n2cc(-c3ncnc4[nH]ccc34)cn2)C1` [BARICITINIB], the concentration at half-maximal activity (AC50) (in [4]; at D(1A) dopamine receptor; on D(3) dopamine receptor; at Prothrombin; on Histamine H3 receptor; in [1]) was greater than 30 µM in each case. For the same compound, the AC50 (at Progesterone receptor; in experiment [2]; at Thromboxane A2 receptor) was greater than 30 µM each time.

In the case of `CC(C)=CCC1C(=O)N(c2ccccc2)N(c2ccccc2)C1=O` [FEPRAZONE], the AC50 (at D(1A) dopamine receptor; at D(3) dopamine receptor; at Prothrombin; at Histamine H3 receptor; in [1]; on Progesterone receptor) was greater than 30 µM throughout. In addition, the half-maximal activity concentration (AC50) (in experiment [2]; on Thromboxane A2 receptor) was greater than 30 µM throughout.

In the case of `O=C1CCC(N2C(=O)c3ccccc3C2=O)C(=O)N1` (centres undefined) [THALIDOMIDE], the AC50 (at Adenosine receptor A3; in experiment [4]; on D(1A) dopamine receptor; on D(3) dopamine receptor; at Prothrombin; on Histamine H3 receptor) was greater than 30 µM each time. Also, the AC50 (in experiment [3]; in [1]; at Progesterone receptor; at Thromboxane A2 receptor) was greater than 30 µM each time.

With `N/N=c1/cc2c(n[nH]1)CCN(C(=O)c1ccccc1)C2` [ENDRALAZINE], the AC50 (on D(1A) dopamine receptor; on D(3) dopamine receptor; at Prothrombin; at Histamine H3 receptor; in experiment [3]; in experiment [1]) was greater than 30 µM in each case. Moreover, the half-maximal activity concentration (AC50) (on Progesterone receptor; in experiment [2]; at Thromboxane A2 receptor) was greater than 30 µM each time.

As to `CO/N=C(\C(=O)N[C@@H]1C(=O)N2C(C(=O)OCOC(=O)C(C)(C)C)=C(C)CS[C@H]12)c1csc(N)n1`, the half-maximal activity concentration (AC50) (on D(1A) dopamine receptor; at D(3) dopamine receptor; at Prothrombin; at Histamine H3 receptor; in experiment [3]; in experiment [1]) was greater than 30 µM in each case. Besides, the AC50 (at Progesterone receptor; in experiment [2]; at Thromboxane A2 receptor) was greater than 30 µM each time.

Turning to `CN1CCN(C(c2ccccc2)c2ccccc2)CC1` [CYCLIZINE], the AC50 is 9.64 µM at Adenosine receptor A3; greater than 30 µM in [4]; 14.4 µM at D(1A) dopamine receptor; 2.21 µM on D(3) dopamine receptor; greater than 30 µM at Prothrombin; greater than 30 µM on Histamine H3 receptor. The AC50 in experiment [3] was 20 µM; in experiment [1], greater than 30 µM; at Progesterone receptor, greater than 30 µM; on Thromboxane A2 receptor, greater than 30 µM.

With `Oc1c(I)cc(I)c2cccnc12` [IODOQUINOL], the AC50 on Adenosine receptor A3 was greater than 3 µM; in experiment [4] it was greater than 30 µM; at D(1A) dopamine receptor, greater than 30 µM; on D(3) dopamine receptor it was greater than 30 µM; at Prothrombin it was greater than 30 µM; at Histamine H3 receptor, greater than 30 µM. Further, the half-maximal activity concentration (AC50) (in experiment [3]; in experiment [1]; on Progesterone receptor; at Thromboxane A2 receptor) was greater than 30 µM in each case.

Turning to `Nc1ccc(/N=N/c2ccccc2)c(N)n1` [PHENAZOPYRIDINE], the AC50 is 9.35 µM at D(1A) dopamine receptor; greater than 30 µM at D(3) dopamine receptor; greater than 30 µM on Prothrombin; greater than 30 µM on Histamine H3 receptor; 14 µM in experiment [3]; greater than 30 µM in [1]. For the same compound, the concentration at half-maximal activity (AC50) (on Progesterone receptor; in experiment [2]; on Thromboxane A2 receptor) was greater than 30 µM throughout.

For `Nc1nc2c(ncn2CCC(CO)CO)c(=O)[nH]1` [PENCICLOVIR], the AC50 (on Adenosine receptor A3; in experiment [4]; on D(1A) dopamine receptor; on D(3) dopamine receptor; on Prothrombin; at Histamine H3 receptor) was greater than 30 µM each time. Moreover, the AC50 (in experiment [3]; in experiment [1]; on Progesterone receptor; on Thromboxane A2 receptor) was greater than 30 µM throughout.
